In PMC7414031, “Correlation between hemolytic activity, cytotoxicity and systemic in vivo toxicity of synthetic antimicrobial peptides” (Scientific Reports, 2020):
pIC50: −log10 of the molar value. Converted amounts (≈) assume the structure as drawn. Square brackets hold non-standard residues; d marks the D form. Peptide text beside a SMILES is read from it. N(1-naphthylmethyl)Gly = O=C(O)CNCc1cccc2ccccc12; Nphe = O=C(O)CNCc1ccccc1; NBuGly = CCCCNCC(=O)O

Experiments:
[1] = tested on: rat erythrocytes; experiment: in vitro; assay type: cell-based, rat (Sprague–Dawley); conditions: for IC10 haemolysis: rat erythrocytes; for pIC50: red cells of rat
Method in brief: (§1)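 Washed heparinized erythrocytes (~5 × 10^8 RBC/mL in PBS) incubated 1 h at 37 °C with peptides in serial 1:1 dilutions (150 to 1.2 µM final). Haemoglobin release read at 405 nm in supernatant; % haemolysis relative to 1% Triton X-100 (100%) and PBS diluent (0%).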

[2] = in vitro; assay type: cell-based, rat (Sprague–Dawley); conditions: Sprague-Dawley, rat
Method in brief: as §1

[3] = Dose-ranging intravenous toxicity study in rats; assay type: in vivo, rat (WistarHan); conditions: rat
Method: All animals were injected with a single dose of 0.5 mL (2 mL/kg body weight) and it was slowly administered over 2 min and 10 s. Shorter cationic tripeptides[4] and synthetic AMPs[72] have previously been evaluated employing the intravenous route. It was an interesting observation that the animals survived the systemic tail vein injection seemingly unaffected. This observation is in contrast to related synAMPs investigated as intravenous antibiotics which induced acute toxicity and paralysis at higher concentrations.

[4] = in vitro; assay type: cell-based, dog; conditions: dog
Method in brief: as §1

[5] = tested on: canine erythrocytes; experiment: in vitro; assay type: cell-based, dog; conditions: for IC10 haemolysis: canine erythrocytes; for pIC50: red cells of canine
Method in brief: as §1

[6] = tested on: Pseudomonas aeruginosa; design: method as in PMID 30842436; conditions: cited from earlier work
[7] = tested on: Staphylococcus pseudintermedius; conditions: cited from earlier work; for S.p. MIC: Staphylococcus pseudintermedius, Table S5, in µM
[8] = tested on: human erythrocytes; experiment: in vitro; assay type: cell-based; conditions: for IC10 haemolysis: human erythrocytes; for pIC50: red cells of human
Method in brief: as §1

[9] = in vitro; assay type: cell-based, human; conditions: human
Method in brief: as §1

[10] = in vitro; assay type: cell-based, bovine; conditions: bovine
Method in brief: as §1

[11] = at in vivo dosing concentrations
[12] = tested on: HeLa cells; assay type: cell-based, human; conditions: 1 h
Method: (§2) An immortalised human keratinocyte (HaCaT) cell line (Gift from David Gram Naym at Bispebjerg Hospital, Denmark), a human liver cancer cell line (HepG2; ATCC HB-8065) and a human epithelial cervical cancer cell line (HeLa; ATCC CCL-2) were cultured to ∼90% confluence after 21–25 h of growth under standard conditions (5% CO2 at 37 °C). Cells were cultured in Dulbecco’s Modified Eagle’s Medium supplemented with 10% (v/v) fetal bovine serum (FBS). All culture media were supplemented with penicillin (100 IU/mL) and streptomycin (100 μg/mL). All cell media and supplements were obtained from Sigma-Aldrich (St. Louis, MO, United States). The 96-well plates were supplied by Corning Costar (Sigma-Aldrich, Brøndby, Denmark). Cell viability assessment was performed on cell monolayers grown to ∼90% confluence in 96-well plates by using the MTS/PMS assay as previously described. Briefly, the adhered cells were washed with PBS solution (37 °C) (ThermoFisher Scientific, Roskilde) and exposed for 1 h at 37 °C to 100 μL of peptides dissolved in the medium also used for culturing of the cell line (at concentrations in the range 0–1,000 μg/mL). The cells were subsequently washed twice with 37 °C PBS and then 100 μL of an MTS/PMS solution in media, consisting of 240 μg/mL MTS (Promega, Madison, WI, United States) and 2.4 mg/mL PMS (Promega, Madison, WI, United States), was added to the cells, which then were incubated for 1 h at 37 °C protected from light. A plate reader (SpectraMax i3X; Molecular devices, San Jose, CA) was used to measure the absorbance at 492 nm. The relative viability was calculated by using 0.2% (w/v) sodium dodecyl sulfate (SDS) as the positive control, while cells exposed to medium without test compound were used as the negative control.

[13] = tested on: HaCaT cells; assay type: cell-based, human; conditions: 1 h
Method: as §2

[14] = tested on: Staphylococcus aureus; design: method as in PMID 30842436; conditions: cited from earlier work
[15] = tested on: bovine erythrocytes; experiment: in vitro; assay type: cell-based; conditions: bovine erythrocytes
Method in brief: as §1

[16] = tested on: human erythrocytes; conditions: cited from earlier work
[17] = tested on: HepG2 cells; assay type: cell-based, human; conditions: 1 h
Method: as §2

[18] = physchem; conditions: PBS

| pIC50 [1] | pIC50 [5] | pIC50 [8] | SMILES | IC10 haemolysis [1] [µM] | hemolysis at 1 h, 150 µM [2] [%] | hemolysis at 1 h, 150 µM [4] [%] | IC10 haemolysis [5] [µM] | MIC against Pseudomonas aeruginosa [6] [µg/mL] | S.p. MIC [7] [µM] | MIC against Staphylococcus pseudintermedius [7] [µg/mL] | IC10 haemolysis [8] [µM] | hemolysis at 1 h, 150 µM [9] [%] | hemolysis at 1 h, 150 µM [10] [%] | Solubility in PBS (in words) [11] | pIC50 [12] | pIC50 [13] | MIC against Staphylococcus aureus [14] [µg/mL] | IC10 haemolysis [15] [µM] | Previously reported haemolytic activity against human erythrocytes (in words) [16] | pIC50 [17] | other results |
| --- | --- | --- | --- | --- | --- | --- | --- | --- | --- | --- | --- | --- | --- | --- | --- | --- | --- | --- | --- | --- | --- |
| 3.84 | 4.33 | 4.08 | CC(C)C[C@H](NC(=O)[C@H](CCCCN)NC(=O)[C@H](CCCCN)NC(=O)[C@@H](N)CCCCN)C(=O)N[C@@H](Cc1cccc2ccccc12)C(=O)N[C@@H](Cc1ccccc1)C(=O)N[C@@H](Cc1cccc2ccccc12)C(N)=O [Compound 7, Lys-Lys-Lys-Leu-(1-Nal)Ala-Phe(1-Nal)Ala] (HELM PEPTIDE1{K.K.K.L.[O=C([C@H](Cc1cccc2ccccc12)N[*:1])[*:2]].F.[O=C([C@H](Cc1cccc2ccccc12)N[*:1])[*:2]].[am]}$$$$V2.0) | 76.9 | 54.3 | 102 | 32.7 | 16 (≈ 15.1 µM) | – | 8 (≈ 7.57 µM) | 35.2 | 83.8 | 16 | – | – | – | 16 (≈ 15.1 µM) | 118.8 | high in vitro haemolytic activity | – | Haemolysis at 80 µM (in words) [1]: near total haemolysis; Haemolysis at 80 µM (in words) [5]: near total haemolysis; Haemolysis at 80 µM (in words) [8]: near total haemolysis |
| 4.45 | 4.49 | 4.40 | CCCCN(CC(=O)N[C@@H](CCCCN)C(=O)N[C@@H](CCCCN)C(=O)N[C@@H](CCCCN)C(N)=O)C(=O)CN(Cc1cccc2ccccc12)C(=O)CN(Cc1ccccc1)C(=O)CNCc1cccc2ccccc12 [Compound 2, (N1-Nal)Gly-(N-Phe)Gly-(N1-Nal)Gly-(N-Bu)Gly-Lys-Lys-Lys] (H-[N(1-naphthylmethyl)Gly][Nphe][N(1-naphthylmethyl)Gly][NBuGly]KKK-NH2) | 20.3 | 100 | 100 | 12.8 | 32 (≈ 30.3 µM) | 7.6 | 8 (≈ 7.57 µM) | 11.2 | 78.1 | < 8 | – | – | 4.05 | 16 (≈ 15.1 µM) | – | – | 3.45 | Haemolytic activity (in words) [8]: amongst the top five most haemolytic compounds |
| < 3.82 | 4.43 | < 3.82 | CC(C)C[C@H](NC(=O)[C@H](CCCCN)NC(=O)[C@@H](N)CCCCN)C(=O)N[C@@H](CCCCN)C(=O)N[C@@H](Cc1cccc2ccccc12)C(=O)N[C@@H](Cc1ccccc1)C(=O)N[C@@H](Cc1cccc2ccccc12)C(N)=O [Compound 6, Lys-Lys-Leu-Lys-(1-Nal)Ala-Phe-(1-Nal)Ala] (HELM PEPTIDE1{K.K.L.K.[O=C([C@H](Cc1cccc2ccccc12)N[*:1])[*:2]].F.[O=C([C@H](Cc1cccc2ccccc12)N[*:1])[*:2]].[am]}$$$$V2.0; N-terminus assumed) | 120.5 | 18.2 | 101 | 12.2 | 8 (≈ 7.57 µM) | – | 8 (≈ 7.57 µM) | 55.6 | 42.7 | 39.9 | – | – | – | 32 (≈ 30.3 µM) | 23.6 | high in vitro haemolytic activity | – | – |

Second part, the molecule before the results:

| SMILES | pIC50 [1] | pIC50 [5] | pIC50 [8] | IC10 haemolysis [1] [µM] | hemolysis at 1 h, 150 µM [2] [%] | hemolysis at 1 h, 150 µM [4] [%] | IC10 haemolysis [5] [µM] | MIC against Pseudomonas aeruginosa [6] [µg/mL] | S.p. MIC [7] [µM] | MIC against Staphylococcus pseudintermedius [7] [µg/mL] | IC10 haemolysis [8] [µM] | hemolysis at 1 h, 150 µM [9] [%] | hemolysis at 1 h, 150 µM [10] [%] | Solubility in PBS (in words) [11] | pIC50 [12] | pIC50 [13] | MIC against Staphylococcus aureus [14] [µg/mL] | IC10 haemolysis [15] [µM] | Previously reported haemolytic activity against human erythrocytes (in words) [16] | pIC50 [17] | other results |
| --- | --- | --- | --- | --- | --- | --- | --- | --- | --- | --- | --- | --- | --- | --- | --- | --- | --- | --- | --- | --- | --- |
| CC(C)C[C@@H](NC(=O)[C@@H](Cc1ccc2ccccc2c1)NC(=O)[C@@H](Cc1ccccc1)NC(=O)[C@H](N)Cc1ccc2ccccc2c1)C(=O)N[C@@H](CCCCN)C(=O)N[C@@H](CCCCN)C(=O)N[C@@H](CCCCN)C(N)=O [Compound 4, (2-Nal)Ala-Phe-(2-Nal)Ala-Leu-Lys-Lys-Lys] (HELM PEPTIDE1{[N[C@H](Cc1ccc2ccccc2c1)C(=O)[*:2]].[dF].[O=C([C@@H](Cc1ccc2ccccc2c1)N[*:1])[*:2]].[dL].K.K.K.[am]}$$$$V2.0) | < 3.82 | < 3.82 | < 3.82 | > 150 | < 8 | < 8 | > 150 | > 64 | 15.1 | 16 (≈ 15.1 µM) | > 150 | < 8 | < 8 | freely soluble | 3.11 | 3.36 | 32 (≈ 30.3 µM) | – | – | – | Clinical signs of discomfort after injection ([3]; i.v. tail vein, high dose (1 mg/mL), two animals, after initial 30 min recovery): less mobility and reactivity to stimuli; Release of haemoglobin in vivo ([3]; i.v., high dose, 3 h): slightly elevated release of haemoglobin; Adverse effects at 8 h after injection ([3]; i.v., high dose, 8 h): no adverse effects were observed; Bilirubin concentration ([3]; i.v., plasma 24 h): no elevated concentration was observed; AST and ALT concentration ([3]; i.v., plasma 24 h, high dose for 4): slight increase of both AST and ALT |
| CC(C)C[C@@H](NC(=O)[C@H](CCCCN)NC(=O)[C@H](CCCCN)NC(=O)[C@@H](N)CCCCN)C(=O)N[C@H](Cc1cccc2ccccc12)C(=O)N[C@H](Cc1ccccc1)C(=O)N[C@H](Cc1cccc2ccccc12)C(N)=O [Compound 11, Lys-Lys-Lys-Leu-(1-Nal)Ala-Phe-(1-Nal)Ala] (HELM PEPTIDE1{K.K.K.[dL].[O=C([C@@H](Cc1cccc2ccccc12)N[*:1])[*:2]].[dF].[O=C([C@@H](Cc1cccc2ccccc12)N[*:1])[*:2]].[am]}$$$$V2.0) | < 3.82 | < 3.82 | < 3.82 | 128.2 | 11.3 | 40.7 | 30.4 | 8 (≈ 7.57 µM) | 1.9 | 2 (≈ 1.89 µM) | 32.8 | 33.3 | 17.4 | required mild heating and sonication at the highest concentration | 3.63 | 3.29 | 8 (≈ 7.57 µM) | 89.2 | – | 3.63 | Maximal serum concentration (calculated from dose) ([3]; 1 mg/mL in PBS injected, assuming 17 mL blood volume for a 250 g rat): 15 µM; Whole blood haemolysis in vivo ([3]; in vivo, iv): not observed in vivo; solubility [18]: 1000 µg/mL (≈ 947 µM) |
